For 21 molecules, CC50 results are on record in patent US12448388B2, “PRMT5 inhibitors and uses thereof” (Gilead Sciences, Inc., priority 2023, dated 2025).

Structures are written as SMILES. Like-named read-outs stand apart in the source and are kept apart here.

The term CC50 denotes the concentration at which the toxic effect on the cells reaches its halfway point.

The experiment deals with HCT116 MTAP-deleted cell lines. Description: Cell viability assay (CellTiter-Glo, 7 days), HCT116 MTAP-deleted. It is filed as cell-based. As to conditions: Homo sapiens, HCT-116, HCT116 MTAP-deleted, class symbols, read-out: CC50. The procedure: Control compounds were analyzed in parallel each time for quality control. In Brief, on Day -1, a serial dilution of stock compounds in DMSO was performed using BioMek liquid handlers and dispensed using Echo acoustic dispenser into 384 well plates. Both tool compounds and sample compounds were spotted in the same plate for a dose response of PRMT5 inhibitors. Compound plates were stored as frozen until the cells were ready for seeding. […] After equilibrating the plate in room temperature, the cells were incubated for 7 days inside the sealed incubator set at 37° C. with 90% humidity and 5% CO2. On Day 7, the viability of cells was measured using a CTG assay kit (CellTitre-Glo;Promega cat no. G7573). Shortly, 40 μl per well of luminescent cell viability assay reagent were dispensed using EL460 liquid dispenser 5 μl cassette. CTG luminescence signal was measured using an EnVision plate reader (PerkinElmer) in accordance with manufacturer's instruction. […] Selectivity with * is artificially high due to limited solubility of the compound hampering accurate measurement of WT CC50.
(Cellular ATP, detected with luciferase, serves as a proxy for viable cell number.)

Regarding `CN(C(=O)c1cc2c(cc1F)nc(N)c1cncn12)[C@@H]1COc2cc(-c3csc(C(F)(F)F)n3)ccc21` [Ff-231, (S)-4-amino-7-fluoro-N-methyl-N-(6-(2-(trifluoromethyl)thiazol-4-yl)-2,3-dihydrobenzofuran-3-yl)imidazo[1,5-a]quinoxaline-8-carboxamide], where the note is “cell viability”, the CC50 is 0.1 to 1 µM.

With `COc1cc(C(F)(F)F)ccc1C1CCCCN1C(=O)c1cc2c(cc1F)nc(N)c1cncn12` (stereo not drawn) [Ff-143, (4-amino-7-fluoroimidazo[1,5-a]quinoxalin-8-yl)(2-(2-methoxy-4-(trifluoromethyl)phenyl)piperidin-1-yl)methanone], the CC50 (cell viability) was 0.1 to 1 µM.

In the case of `COc1ccc2c(c1F)CO[C@H]1CCCN(C(=O)c3cc4c(cc3F)nc(N)c3cncn34)[C@@H]21` (racemic) [Ff-299, Rac-(4-amino-7-fluoroimidazo[1,5-a]quinoxalin-8-yl)((4aS,10bS)-7-fluoro-8-methoxy-2,3,4,4a,6,10b-hexahydro-1H-isochromeno[4,3-b]pyridin-1-yl)methanone], the CC50 (cell viability) was less than 0.1 µM.

Take `CN(C(=O)c1cc2c(cn1)nc(N)c1cncn12)[C@H]1c2ccc(C(F)(F)F)cc2[C@@H]2C[C@@H]21` [Ff-254, 4-amino-N-methyl-N-((1aR,6R,6aS)-3-(trifluoromethyl)-1,1a,6,6a-tetrahydrocyclopropa[a]inden-6-yl)imidazo[1,5-a]pyrido[3,4-e]pyrazine-8-carboxamide]: for the setting “cell viability”, the CC50 lay in the range of 0.1 to 1 µM.

Regarding `C[C@@H]1C[C@@H]2Oc3cc(C(F)(F)F)ncc3[C@@H]2N(C(=O)c2cc3c(cc2F)nc(N)c2cncn23)C1` [Fg-20, (4-amino-7-fluoroimidazo[1,5-a]quinoxalin-8-yl)((3R,4aS,9bS)-3-methyl-7-(trifluoromethyl)-3,4,4a,9b-tetrahydrofuro[3,2-b:4,5-c′]dipyridin-1(2H)-yl)methanone], the CC50 (cell viability assay) was less than 0.1 µM.

Take `Cc1ncc2c(N)nc3cnc(C(=O)N4C[C@@H](F)C[C@@H]5Oc6cc(OC(F)(F)F)ccc6[C@@H]54)cc3n12` [Fg-45, (4-amino-1-methylimidazo[1,5-a]pyrido[3,4-e]pyrazin-8-yl)((3S,4aS,9bS)-3-fluoro-7-(trifluoromethoxy)-3,4,4a,9b-tetrahydrobenzofuro[3,2-b]pyridin-1(2H)-yl)methanone]: for the setting “cell viability assay”, the CC50 is less than 0.1 µM.

On to `Nc1nc2cc(Cl)c(C(=O)N3CC[C@H]4C[C@@H]3c3ccc(C(F)(F)F)nc34)cc2n2cncc12` (racemic) [Ff-91, Rac-(4-amino-7-chloroimidazo[1,5-a]quinoxalin-8-yl)((5R,9S)-2-(trifluoromethyl)-5,7,8,9-tetrahydro-6H-5,9-methanopyrido[3,2-c]azepin-6-yl)methanone], for which the CC50 (cell viability) is less than 0.1 µM.

In the case of `CC(=O)N1CCN(C(=O)c2cc3c(cc2F)nc(N)c2cncn23)C(c2ccc(C(F)(F)F)cn2)C1` (stereo not drawn) [Ff-134, 1-(4-(4-amino-7-fluoroimidazo[1,5-a]quinoxaline-8-carbonyl)-3-(5-(trifluoromethyl)pyridin-2-yl)piperazin-1-yl)ethan-1-one], the CC50 (cell viability) was in the range of 0.1 to 1 µM.

Consider `CN(C(=O)c1cc2c(cc1F)nc(N)c1cncn12)[C@@H]1COc2cc(C#CC3CC(F)(F)C3)ccc21` [Ff-525, (S)-4-amino-N-(6-((3,3-difluorocyclobutyl)ethynyl)-2,3-dihydrobenzofuran-3-yl)-7-fluoro-N-methylimidazo[1,5-a]quinoxaline-8-carboxamide], for which, under “cell viability assay”, the CC50 is 0.1 to 1 µM.

As for `Nc1nc2ccc(C(=O)N3CCO[C@@H]4Cc5cc(Br)ccc5[C@@H]43)cc2n2cncc12` (racemic) [Ff-37, Racemic (4-aminoimidazo[1,5-a]quinoxalin-8-yl)((4aS,9aR)-7-bromo-2,3,9,9a-tetrahydroindeno[2,1-b][1,4]oxazin-4(4aH)-yl)methanone], where the note is “cell viability”, the CC50 fell in the range of 0.1 to 1 µM.

As to `CN(Cc1ccc(F)cc1Cl)C(=O)c1cc2c(cc1F)nc(N)c1cncn12` [Ff-31, 4-amino-N-(2-chloro-4-fluorobenzyl)-7-fluoro-N-methylimidazo[1,5-a]quinoxaline-8-carboxamide], the CC50 (cell viability) fell in the range of 0.1 to 1 µM.

Turning to `C[C@H](C#N)N(Cc1ccc(C(F)(F)F)cc1F)C(=O)c1cc2c(cc1F)nc(N)c1cncn12` [Ff-418, 4-amino-N-[(1R)-1-cyanoethyl]-7-fluoro-N-[[2-fluoro-4-(trifluoromethyl)phenyl]methyl]imidazo[1,5-a]quinoxaline-8-carboxamide], the CC50 (cell viability assay) fell in the range of 0.1 to 1 µM.

For the molecule `Cc1ncc2c(N)nc3cnc(C(=O)N4CCC[C@@H]5Oc6c(ccc(C(F)(F)F)c6F)[C@@H]54)cc3n12` [Ff-107, (4-amino-1-methylimidazo[1,5-a]pyrido[3,4-e]pyrazin-8-yl)((4aS,9bS)-6-fluoro-7-(trifluoromethyl)-3,4,4a,9b-tetrahydrobenzofuro[3,2-b]pyridin-1(2H)-yl)methanone], the CC50 (cell viability) is less than 0.1 µM.

Take `Nc1nc2cc(F)c(C(=O)N3CC[C@H]4C[C@@H]3c3ccc(C(F)(F)F)cc3O4)cc2n2cncc12` [Ff-365, (4-amino-7-fluoroimidazo[1,5-a]quinoxalin-8-yl)((2S,6R)-9-(trifluoromethyl)-3,4-dihydro-2H-2,6-methanobenzo[b][1,5]oxazocin-5(6H)-yl)methanone]: for the setting “cell viability”, the CC50 is less than 0.1 µM.

Regarding `C[C@H](c1ncc(C(F)(F)F)cc1F)N(C)C(=O)c1cc2c(cc1F)nc(N)c1cncn12` [Ff-537, (R)-4-amino-7-fluoro-N-(1-(3-fluoro-5-(trifluoromethyl)pyridin-2-yl)ethyl)-N-methylimidazo[1,5-a]quinoxaline-8-carboxamide], the CC50 (cell viability assay) was less than 0.1 µM.

Consider `Nc1nc2ccc(C(=O)N3CCC[C@@H]4Oc5cc(C(F)(F)F)c(F)cc5[C@@H]43)cc2n2cncc12` [Ff-389, (4-aminoimidazo[1,5-a]quinoxalin-8-yl)((4aS,9bS)-8-fluoro-7-(trifluoromethyl)-3,4,4a,9b-tetrahydrobenzofuro[3,2-b]pyridin-1(2H)-yl)methanone], for which the CC50 (cell viability assay) was less than 0.1 µM.

With `CN(C(=O)c1cc2c(cc1F)nc(N)c1cncn12)[C@@H]1COCc2nc(C(F)(F)F)ccc21` [Ff-281, (S)-4-amino-7-fluoro-N-methyl-N-(2-(trifluoromethyl)-5,8-dihydro-6H-pyrano[3,4-b]pyridin-5-yl)imidazo[1,5-a]quinoxaline-8-carboxamide], the CC50 (cell viability) was less than 0.1 µM.

Turning to `CN(Cc1ccc(F)cc1Cl)C(=O)c1ccc2nc(N)c3cncn3c2c1` [Ff-30, 4-amino-N-(2-chloro-4-fluorobenzyl)-N-methylimidazo[1,5-a]quinoxaline-8-carboxamide], the CC50 (cell viability) was more than 1 µM.

Consider `C[C@H](c1ccc(C(F)(F)F)cn1)N(C)C(=O)c1cc2c(cc1F)nc(N)c1cncn12` [Ff-532, (R)-4-amino-7-fluoro-N-methyl-N-(1-(5-(trifluoromethyl)pyridin-2-yl)ethyl)imidazo[1,5-a]quinoxaline-8-carboxamide], for which the CC50 (cell viability assay) is less than 0.1 µM.

As for `CN(C(=O)c1ccc2nc(N)c3cncn3c2c1)[C@@H]1COc2c1ccc(C(F)(F)F)c2F` [Ff-356, (S)-4-amino-N-(7-fluoro-6-(trifluoromethyl)-2,3-dihydrobenzofuran-3-yl)-N-methylimidazo[1,5-a]quinoxaline-8-carboxamide], the CC50 (cell viability) was less than 0.1 µM.

Regarding `CN(C(=O)c1cc2c(cc1F)nc(N)c1cncn12)[C@@H]1COc2cc([C@@H]3C[C@H]3C(F)F)ccc21` (single isomer, unassigned) [Ff-504], the CC50 (cell viability assay) was less than 0.1 µM.
